The text below walks through data of BindingDB's records for doi:10.1021/acs.jmedchem.6b01303 (Astrazeneca, 2016).

The nature of the experiment: Inhibition of SMYD2 (unknown origin) expressed in human U2OS cells assessed as reduction in cell count incubated for 24 hrs by DAPI staining based assay.

The IC50 is the midpoint of a concentration-inhibition curve. With `N#Cc1cc(C(=O)NCCCN2CCCC2)cc(-c2ccccc2N2CCN(CCc3ccc(Cl)c(Cl)c3)CC2)c1`, the IC50 amounted to 5 µM. Then `O=C(NCCCN1CCCC1)c1cncc(-c2ccccc2N2CCN(CCc3c[nH]c4ccccc34)CC2)c1`, with 13.3 µM.
